Experimental data from US6710168B1, “Glycopeptide antibiotics, combinatorial libraries of glycopeptide antibiotics and methods of producing same” (The Trustees of the University of Princeton, priority 1999, dated 2004).
Values after ≈ are worked out from the molar mass of the structure shown. Like-named read-outs stand apart in the source and are kept apart here.

Columns and labels:
Assay type in all cases: cell-based
[1] = test system: Methicillin resistant Staphylococcus aureus (ATCC 33591); experiment: MIC susceptibility test, microdilution with MTT readout; conditions: for MIC: ATCC 3359 / ATCC 33591 / MRSA, read-out: MIC MRSA
How it was run: (§1)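 Broth microdilution in cation-adjusted Mueller-Hinton broth, 12-step two-fold series from 5 μg/mL to […], mixed 1:1 with 10^6 CFU/mL cell suspension and incubated 24 h at 37 °C. MTT (1 mg/mL solution) is then added for 30 min (S. aureus, MRSA) or 2 h (E. faecalis strains). MIC = lowest concentration inhibiting growth.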

[2] = test system: Bacillus cereus (ATCC 11778); experiment: as above; conditions: for MIC BC: Bacillus ceres ATCC11778; for MIC: Bacillus cereus, ATCC11778, read-out: MIC BC
How it was run: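 Bacillus cereus ATCC® 11778 susceptibility was measured by broth microdilution in 96-well microplates using Cation Adjusted Mueller-Hinton broth. Samples were diluted two-fold from 5 μg/mL over 12 steps. Each well combined 100 μL of cell suspension (10^6 CFU/mL) with 100 μL of antibiotic solution and was incubated at 37° C. for 24 h. Then 50 μL of MTT (1 mg/mL) was added for 30 min, and MIC (μg/mL) was read as the lowest concentration inhibiting growth.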

[3] = test system: Staphylococcus aureus (ATCC 29213); experiment: as above
How it was run: as §1

[4] = test system: Enterococcus faecalis (ATCC 29212); experiment: as above
How it was run: as §1

[5] = test system: Enterococcus faecalis CL5244, VanB; experiment: MIC susceptibility test; conditions: for MIC: read-out: MIC CL5244
How it was run: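 MTT-based broth microdilution in cation-adjusted Mueller-Hinton broth; two-fold 12-step dilutions […], inoculum 10^6 CFU/mL, 37° C for 24 h.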

[6] = test system: gentamicin, streptmycin, vancomycin resistant Enterococcus faecalis (ATCC 51299); experiment: microbe, parasite or virus in culture; conditions: for MIC VREF: Enterococcus faecalis ATCC51299, vancomycin resistance; for MIC: Enterococcus faecalis, ATCC51299, read-out: MIC VREF
How it was run: as §1

[7] = test system: Enterococcus faecium CL5137, VanA; experiment: MIC susceptibility test; conditions: for MIC: read-out: MIC CL5137
[8] = Staphylococcus aureus ATCC3359, Methicillin resistance
[9] = Staphylococcus aureus ATCC29213
[10] = Enterococcus faecalis ATCC29212
[11] = Enterococcus faecalis CL5244, VanB
[12] = Enterococcus faecium CL5137, VanA
[13] = Staphylococcus aureus ATCC29213, read-out: MIC SA
[14] = Enterococcus faecalis ATCC29212, read-out: MIC EF

Compound | MIC MRSA [1, 8] | MIC BC [2] | MIC SA [3, 9] | MIC EF [4, 10] | MIC CL5244 [5, 11] | MIC VREF [6] | MIC CL5137 [7, 12] | MIC [1, 8] | MIC [2] | MIC [3, 13] | MIC [4, 14] | MIC [5, 11] | MIC [6] | MIC [7, 12] | MIC ([1]; Staphylococcus aureus) | MIC ([3]; Staphylococcus aureus, ATCC29213, read-out: MIC SA) | MIC ([4]; Enterococcus faecalis, ATCC29212, read-out: MIC EF) | MIC ([5]; Enterococcus faecalis) | MIC ([7]; Enterococcus faecium)
CNC(CC(C)C)C(=O)NC1C(=O)NC(CC(N)=O)C(=O)NC2C(=O)NC3C(=O)NC(C(=O)NC(C(=O)O)c4cc(O)cc(O)c4-c4cc3ccc4O)C(O)c3ccc(c(Cl)c3)Oc3cc2cc(c3OC2OC(CNC(=O)c3cnc4ccccc4n3)C(O)C(O)C2OC2CC(C)(N)C(O)C(C)O2)Oc2ccc(cc2Cl)C1O (centres unmarked) [XXXVII, Glucose-C6-N-2-quinoxaloyl Vancomycin] | 0.63 µg/mL (≈ 0.393 µM) | 0.32 µg/mL (≈ 0.199 µM) | 0.32 µg/mL (≈ 0.199 µM) | 0.32 µg/mL (≈ 0.199 µM) | 1.6 µg/mL (≈ 0.997 µM) | 0.32 µg/mL (≈ 0.199 µM) | 50< μg/mL |  |  |  |  |  |  |  |  |  |  |  | 
CN[C@@H](CC(C)C)C(=O)N[C@H]1C(=O)N[C@@H](CC(N)=O)C(=O)N[C@H]2C(=O)NC3C(=O)N[C@H](C(=O)N[C@@H](C(=O)O)c4cc(O)cc(O)c4-c4cc3ccc4O)[C@H](O)c3ccc(c(Cl)c3)Oc3cc2cc(c3OC2OC(CSc3nnc(C)c(O)n3)C(O)C(O)C2OC2CC(C)(N)C(O)C(C)O2)Oc2ccc(cc2Cl)[C@H]1O (some centres unmarked) [LXIV, Glucose-C6-2-thio-6-azathymine Vancomycin] |  |  |  |  |  |  |  | 0.32 µg/mL (≈ 0.203 µM) | 0.08 µg/mL (≈ 0.0508 µM) | 0.24 µg/mL (≈ 0.152 µM) | 0.12 µg/mL (≈ 0.0762 µM) | 1.2 µg/mL (≈ 0.762 µM) | 0.16 µg/mL (≈ 0.102 µM) | > 500 µg/mL |  |  |  |  | 
C=C1N[C@@H]2C(=O)N[C@@H](C(=O)O)c3cc(O)cc(O)c3-c3cc(ccc3O)C1NC(=O)[C@@H]1NC(=O)[C@H](CC(N)=O)NC(=O)[C@H](NC(=O)[C@H](CC(C)C)NC)[C@H](O)c3ccc(c(Cl)c3)Oc3cc1cc(c3OC1OC(CSc3nc(-c4ccccc4)c(-c4ccccc4)o3)C(O)C(O)C1OC1CC(C)(N)C(O)C(C)O1)Oc1ccc(cc1Cl)[C@H]2O (some centres unmarked) [LXIX, Glucose-C6-2-thio-4,5-diphenyloxazole Vancomycin] |  |  |  |  |  |  |  | 2.5 µg/mL (≈ 1.49 µM) | 1.3 µg/mL (≈ 0.773 µM) | 1.9 µg/mL (≈ 1.13 µM) | 0.24 µg/mL (≈ 0.143 µM) | 0.6 µg/mL (≈ 0.357 µM) | 0.32 µg/mL (≈ 0.19 µM) | 50 µg/mL (≈ 29.7 µM) |  |  |  |  | 
CNC(CC(C)C)C(=O)NC1C(=O)NC(CC(N)=O)C(=O)NC2C(=O)NC3C(=O)NC(C(=O)NC(C(=O)O)c4cc(O)cc(O)c4-c4cc3ccc4O)C(O)c3ccc(c(Cl)c3)Oc3cc2cc(c3OC2OC(CI)C(O)C(O)C2OC2CC(C)(NCc3ccc(-c4ccc(Cl)cc4)cc3)C(O)C(C)O2)Oc2ccc(cc2Cl)C1O (centres unmarked) [LXXIIa, Vancosamine-N-4-(4-chlorophenyl)benzyl-glucose-C6-iodo vancomycin] | 0.63 µg/mL (≈ 0.358 µM) | 0.32 µg/mL (≈ 0.182 µM) | 0.48 µg/mL (≈ 0.273 µM) | 0.16 µg/mL (≈ 0.0909 µM) | 0.3 µg/mL (≈ 0.17 µM) | 0.32 µg/mL (≈ 0.182 µM) | 13 µg/mL (≈ 7.39 µM) |  |  |  |  |  |  |  |  |  |  |  | 
CN[C@H](CC(C)C)C(=O)N[C@H]1C(=O)N[C@@H](CC(N)=O)C(=O)N[C@H]2C(=O)N[C@H]3C(=O)N[C@H](C(=O)N[C@H](C(=O)O)c4cc(O)cc(O)c4-c4cc3ccc4O)[C@H](O)c3ccc(c(Cl)c3)Oc3cc2cc(c3OC2OC(CO)C(O)C(O)C2OC2CC(C)(N)C(O)C(C)O2)Oc2ccc(cc2Cl)[C@H]1O (some centres unmarked) [I, vancomycin, reference compound] |  |  |  |  |  |  |  |  | 1 µg/mL (≈ 0.69 µM) |  |  |  | > 5 µg/mL |  | 1.3 µg/mL (≈ 0.897 µM) | 1 µg/mL (≈ 0.69 µM) | 1.3 µg/mL (≈ 0.897 µM) | 25 µg/mL (≈ 17.3 µM) | 1600 µg/mL (≈ 1100 µM)
CNC(CC(C)C)C(=O)NC1C(=O)NC(CC(N)=O)C(=O)NC2C(=O)NC3C(=O)NC(C(=O)NC(C(=O)O)c4cc(O)cc(O)c4-c4cc3ccc4O)C(O)c3ccc(c(Cl)c3)Oc3cc2cc(c3OC2OC(Cn3ccnc3)C(O)C(O)C2OC2CC(C)(N)C(O)C(C)O2)Oc2ccc(cc2Cl)C1O (centres unmarked) [LVII, Glucose-C6-imidazole Vancomycin] | 1.9 µg/mL (≈ 1.27 µM) | 2.5 µg/mL (≈ 1.67 µM) | 1.3 µg/mL (≈ 0.867 µM) | 2.5 µg/mL (≈ 1.67 µM) | 50 µg/mL (≈ 33.3 µM) | 5.0 µg/mL (≈ 3.33 µM) | 50< μg/mL |  |  |  |  |  |  |  |  |  |  |  | 
CCCCCCCCCCNC1(C)CC(OC2C(Oc3c4cc5cc3Oc3ccc(cc3Cl)C(O)C3NC(=O)C(NC(=O)C5NC(=O)C(CC(N)=O)NC(=O)C(NC(=O)C(CC(C)C)NC)C(O)c5ccc(c(Cl)c5)O4)c4ccc(O)c(c4)-c4c(O)cc(O)cc4C(C(=O)O)NC3=O)OC(CSc3nc(N)n[nH]3)C(O)C2O)OC(C)C1O (centres unmarked) [LXXII, Vancosamine-N-decyl-glucose-C6-S-3-amino-5-mercapto-1,2,4-triazole Vancomycin] | 1.9 µg/mL (≈ 1.13 µM) | 2.5 µg/mL (≈ 1.48 µM) | 3.8 µg/mL (≈ 2.25 µM) | 0.32 µg/mL (≈ 0.19 µM) | 0.3 µg/mL (≈ 0.178 µM) | 0.32 µg/mL (≈ 0.19 µM) | 6.3 µg/mL (≈ 3.73 µM) |  |  |  |  |  |  |  |  |  |  |  | 
CNC(CC(C)C)C(=O)NC1C(=O)NC(CC(N)=O)C(=O)NC2C(=O)NC3C(=O)NC(C(=O)NC(C(=O)O)c4cc(O)cc(O)c4-c4cc3ccc4O)C(O)c3ccc(c(Cl)c3)Oc3cc2cc(c3OC2OC(CNCc3ccc(-c4ccc(Cl)cc4)cc3)C(O)C(O)C2OC2CC(C)(N)C(O)C(C)O2)Oc2ccc(cc2Cl)C1O (centres unmarked) [XXIX, Glucose-C6-N-4-(4-chlorophenyl)benzyl Vancomycin] | 0.63 µg/mL (≈ 0.382 µM) | 0.63 µg/mL (≈ 0.382 µM) | 0.63 µg/mL (≈ 0.382 µM) | 0.63 µg/mL (≈ 0.382 µM) | 0.6 µg/mL (≈ 0.364 µM) | 0.63 µg/mL (≈ 0.382 µM) | 50 µg/mL (≈ 30.3 µM) |  |  |  |  |  |  |  |  |  |  |  | 
